In patent US20250296971A1, “GASTRIC INHIBITORY PEPTIDE RECEPTOR LIGANDS” (priority 2021, published 2025):
*1 amine or outer side, *2 acyl side, *3 side chain or, on linkers, in order; H or OH if unused. Where a SMILES comes first, the peptide text is derived from it. Bridges are numbered along the chain shown (N, C = ends). Side-chain parts run from the residue outwards. [ ]: non-standard residue; d: D form. The star is where a group is joined. X12 = O=C(O)CN1CCN(CC(=O)O)CCN(CC(=O)N[C@H](CCC(=O)NC[C@H](O)[C@@H](O)[C@H](O)[C@H](O)CO)C(=O)*)CCN(CC(=O)O)CC1; X2 = O=C(O)CN1CCN(CC(=O)O)CCN(CC(=O)N[C@@H](CCC(=O)NC[C@H](O)[C@@H](O)[C@H](O)[C@H](O)CO)C(=O)*)CCN(CC(=O)O)CC1; NH(1-deoxy-D-glucityl) = OC[C@@H](O)[C@@H](O)[C@H](O)[C@@H](O)CN*; Pro(trans-4-NH2) = O=C([C@@H]1C[C@@H](N[*:3])CN1[*:1])[*:2]; DOTA = O=C(O)CN1CCN(CC(=O)O)CCN(CC(=O)*)CCN(CC(=O)O)CC1; Trp(5-Cl) = N[C@@H](Cc1c[nH]c2ccc(Cl)cc12)C(=O)O; Pyridine(2,6-diCH2) = c1cc(C[*:1])nc(C[*:2])c1; Pro(4R-NH2) = N[C@H]1CN[C@H](C(=O)O)C1; Glutaryl = O=C(CCCC(=O)[*:2])[*:1]; Hyp = O=C(O)[C@@H]1C[C@@H](O)CN1; X1 = O=C(CN1CCC(N[*:1])CC1)[*:2]; Suc = O=C(CCC(=O)[*:2])[*:1]; hSer = N[C@@H](CCO)C(=O)O; Api = NC1(C(=O)O)CCNCC1; Thp = NC1(C(=O)O)CCOCC1

How the values were obtained:
[1] = target: T1, GIPR (CHO-K1-hGIPR cells) (Homo sapiens, UniProt P48546); assay: FACS binding assay; settings: competition with 20 nM GIP-057, 4° C., 1 hour, read-out: pIC50 Category (converted)
T1 construct: host or cells: CHO-K1
T1 sequence (P48546 22-466): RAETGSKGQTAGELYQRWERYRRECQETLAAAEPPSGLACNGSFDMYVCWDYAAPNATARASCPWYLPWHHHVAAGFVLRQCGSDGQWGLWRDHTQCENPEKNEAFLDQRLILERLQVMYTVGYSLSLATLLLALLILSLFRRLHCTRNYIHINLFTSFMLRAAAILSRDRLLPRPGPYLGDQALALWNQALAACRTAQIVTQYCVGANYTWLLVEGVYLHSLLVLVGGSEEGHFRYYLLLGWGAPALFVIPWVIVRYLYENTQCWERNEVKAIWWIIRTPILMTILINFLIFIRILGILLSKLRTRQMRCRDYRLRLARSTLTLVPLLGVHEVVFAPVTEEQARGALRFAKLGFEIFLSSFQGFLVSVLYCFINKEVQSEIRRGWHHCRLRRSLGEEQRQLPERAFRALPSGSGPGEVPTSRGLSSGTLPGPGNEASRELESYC
Outline: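 CHO-K1 cells expressing human GIPR, washed in PBS/1% FCS, then stained with 1 μg/mL APC-streptavidin for 30 min on ice.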

[2] = target: T2, human GIP receptor (bioGIPR) (Homo sapiens, UniProt P48546); assay: Surface plasmon resonance (SPR) based binding assay; settings: Single Cycle Kinetic mode, 25° C.; for t1/2 Category: SPR dissociation half-life; for Kd: SPR, 1:1 Langmuir binding model, read-out: pKD Category (converted)
T2 construct: Biotinylate extracellular of the human GIP receptor (bioGIPR, Proteros biostructures GmbH, lot #02/2b); purchased Proteros biostructures GmbH lot #02/2b
T2 sequence (P48546 22-138 limits assumed): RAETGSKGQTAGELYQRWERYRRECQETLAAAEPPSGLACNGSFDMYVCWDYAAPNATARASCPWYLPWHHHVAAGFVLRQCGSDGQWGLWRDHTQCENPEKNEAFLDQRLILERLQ
Description: Surface plasmon resonance (SPR) studies were performed using a Biacore™ T200 SPR system. Briefly, polarized light is directed towards a gold-labeled sensor surface, and minimum intensity reflected light is detected. The angle of reflected light changes as molecules bind and dissociate.
Biotinylate extracellular of the human GIP receptor (bioGIPR, Proteros biostructures GmbH, lot #02/2b) was captured on a biotin capture chip (Biotin CAPture Kit, Series S, GE Healthcare, Cat #28-9202-34). bioGIPR was diluted in Running Buffer (HBST from Xantec Analytics; […], 0.05% Tween20, 0.1% DMSO) to a final concentration 100 nM and than flushed over the Fc-capture chip to immobilized ˜3500 RUs.
Stock solutions of test compounds were prepared by dissolving each compound in DMSO. DMSO stock solution were diluted 1:1000 in Running Buffer without DMSO. Further sequential dilutions were made with Running Buffer containing 0.1% DMSO. SPR binding analyses were performed in Single Cycle Kinetic (SCK) mode at 25° C. Flow cell without immobilized bioGIPR served as reference flowcell. After each SCK run, bioGIRP and the Biotin Capture Reagent was removed with Regeneration Solution (6 M Guanidium, 0.75 M NaOH).
In between every three SCK measurements, a blank run with Running Buffer instead of test compound was included to correct for baseline drifts (double blanking method).
For each test compound, SPR raw data in the form of resonance units (RU) were plotted as sensorgrams using the Biacore™ T200 control software. The signal from the blank sensorgram was subtracted from that of the test compound sensorgram (blank corrected). The blank corrected sensorgram was corrected for baseline drift by subtracting the sensorgram of a SCK run without the test compound (running buffer only). The association rate (kon), dissociation rate (koff), dissociation constant (KD), and t1/2 were calculated from blank corrected SPR data using the 1:1 Langmuir binding model from the Biacore™ T200 evaluation software. Raw data and fit results were imported as text files in IDBS. The pKD value (negative decadic logarithm of dissociation constant) was calculated in the IDBS excel template.

Row | SMILES | IC50 [1] | t1/2 Category [2] | Kd [2]
1 | CC[C@H](C)[C@@H]1NC(=O)[C@H](CC(C)C)NC(=O)C2(CCN(C(=O)[C@H](CCC(=O)NC[C@H](O)[C@@H](O)[C@H](O)[C@H](O)CO)NC(=O)CN3CCN(CC(=O)O)CCN(CC(=O)O)CCN(CC(=O)O)CC3)CC2)NC(=O)[C@@H](NC(=O)[C@@H](CC(C)C)NC(=O)[C@H](CCC(=O)O)NC(=O)[C@@H]2C[C@@H](NC(=O)CCCC(=O)NC[C@H](O)[C@@H](O)[C@H](O)[C@H](O)CO)CN2C(=O)[C@H](Cc2c[nH]c3ccc(Cl)cc23)NC(=O)[C@H](Cc2c[nH]c3ccccc23)NC(=O)[C@H](CC(=O)O)NC(=O)CN2CCC(NC(=O)CCCC(=O)NC[C@H](O)[C@@H](O)[C@H](O)[C@H](O)CO)CC2)CSCc2cccc(n2)CSC[C@@H](C(=O)NC2CCN(CC(=O)N[C@H](CCC(=O)NC[C@H](O)[C@@H](O)[C@H](O)[C@H](O)CO)C(N)=O)CC2)NC1=O [GIP-007, AGLU-Glutar-APAc-Asp-Trp-5Clw-Tap(AGLU-Glutar)-Glu-leu-[Cys(2Lut)-Apc(DOTA-glu(AGLU))-Leu-Ile-Cys]-APAc-glu(AGLU)-NH2] ({NH(1-deoxy-D-glucityl)-Glutaryl}-[X1]DW[Trp(5-Cl)][Pro(trans-4-NH2)]([Glutaryl-NH(1-deoxy-D-glucityl)])E[dL]C[Api](X2)LIC[X1][dE](NH(1-deoxy-D-glucityl))-NH2; linker 8-12 via Pyridine(2,6-diCH2)) | 0.01 to 0.0794 µM | A (t1/2 values>15 min) | < 0.001 µM
2 | CC[C@H](C)[C@@H]1NC(=O)[C@H](CC(C)C)NC(=O)C2(CCN(C(=O)[C@@H](CCC(=O)NC[C@H](O)[C@@H](O)[C@H](O)[C@H](O)CO)NC(=O)CN3CCN(CC(=O)O)CCN(CC(=O)O)CCN(CC(=O)O)CC3)CC2)NC(=O)[C@@H](NC(=O)[C@@H](CC(C)C)NC(=O)[C@H](CCC(=O)O)NC(=O)[C@@H]2C[C@@H](N)CN2C(=O)[C@H](Cc2c[nH]c3ccc(Cl)cc23)NC(=O)[C@H](Cc2c[nH]c3ccccc23)NC(=O)[C@H](CC(=O)O)NC(=O)CN2CCC(NC(=O)CCCC(=O)NC[C@H](O)[C@@H](O)[C@H](O)[C@H](O)CO)CC2)CSCc2cccc(n2)CSC[C@@H](C(=O)NC2CCN(CC(=O)N[C@H](CCC(=O)NC[C@H](O)[C@@H](O)[C@H](O)[C@H](O)CO)C(N)=O)CC2)NC1=O [GIP-008, AGLU-Glutar-APAc-Asp-Trp-5Clw-Tap-Glu-leu-[Cys(2Lut)-Apc(DOTA-glu(AGLU))-Leu-Ile-Cys]-APAc-glu(AGLU)-NH2] ({NH(1-deoxy-D-glucityl)-Glutaryl}-[X1]DW[Trp(5-Cl)][Pro(4R-NH2)]E[dL]C[Api](X12)LIC[X1][dE](NH(1-deoxy-D-glucityl))-NH2; linker 8-12 via Pyridine(2,6-diCH2)) | < 0.01 µM | A (t1/2 values>15 min) | < 0.001 µM
3 | CC[C@H](C)[C@@H]1NC(=O)[C@H](CC(C)C)NC(=O)C2(CCN(C(=O)CN3CCN(CC(=O)O)CCN(CC(=O)O)CCN(CC(=O)O)CC3)CC2)NC(=O)[C@@H](NC(=O)[C@@H](CC(C)C)NC(=O)[C@H](CCC(=O)O)NC(=O)[C@@H]2C[C@@H](O)CN2C(=O)[C@H](Cc2c[nH]c3ccc(Cl)cc23)NC(=O)[C@H](Cc2c[nH]c3ccccc23)NC(=O)[C@H](CC(=O)O)NC(=O)CN2CCC(NC(=O)CCCC(=O)NC[C@H](O)[C@@H](O)[C@H](O)[C@H](O)CO)CC2)CSCc2cccc(n2)CSC[C@@H](C(=O)NC2CCN(CC(=O)N[C@H](CCC(=O)NC[C@H](O)[C@@H](O)[C@H](O)[C@H](O)CO)C(N)=O)CC2)NC1=O [GIP-011, AGLU-Glutar-APAc-Asp-Trp-5Clw-Hyp-Glu-leu-[Cys(2Lut)-Apc(DOTA)-Leu-Ile-Cys]-APAc-glu(AGLU)-NH2] ({NH(1-deoxy-D-glucityl)-Glutaryl}-[X1]DW[Trp(5-Cl)][Hyp]E[dL]C[Api](DOTA)LIC[X1][dE](NH(1-deoxy-D-glucityl))-NH2; linker 8-12 via Pyridine(2,6-diCH2)) | < 0.01 µM | A (t1/2 values>15 min) | < 0.001 µM
4 | CC[C@H](C)[C@@H]1NC(=O)[C@H](CC(C)C)NC(=O)C2(CCOCC2)NC(=O)[C@@H](NC(=O)[C@@H](CC(C)C)NC(=O)[C@H](CCC(=O)O)NC(=O)[C@@H]2C[C@@H](O)CN2C(=O)[C@H](Cc2c[nH]c3ccc(Cl)cc23)NC(=O)[C@H](Cc2c[nH]c3ccccc23)NC(=O)CCC(=O)O)CSCc2cccc(n2)CSC[C@@H](C(=O)NC2CCN(CC(=O)N[C@H](CCC(=O)NC[C@H](O)[C@@H](O)[C@H](O)[C@H](O)CO)C(=O)N[C@@H](CCCCNC(=O)CN3CCN(CC(=O)O)CCN(CC(=O)O)CCN(CC(=O)O)CC3)C(N)=O)CC2)NC1=O [GIP-021, HO-Succinyl-Trp-5Clw-Hyp-Glu-leu-[Cys(2Lut)-Thp-Leu-Ile-Cys]-APAc-glu(AGLU)-Lys(DOTA)-NH2] (Suc-W[Trp(5-Cl)][Hyp]E[dL]C[Thp]LIC[X1][dE](NH(1-deoxy-D-glucityl))K(DOTA)-NH2; linker 6-10 via Pyridine(2,6-diCH2)) | < 0.01 µM | A (t1/2 values>15 min) | < 0.001 µM
5 | CC[C@H](C)[C@@H]1NC(=O)[C@H](CC(C)C)NC(=O)C2(CCNCC2)NC(=O)[C@@H](NC(=O)[C@@H](CC(C)C)NC(=O)[C@H](CCC(=O)O)NC(=O)[C@@H]2C[C@@H](N)CN2C(=O)[C@H](Cc2c[nH]c3ccc(Cl)cc23)NC(=O)[C@H](Cc2c[nH]c3ccccc23)NC(=O)CCC(=O)O)CSCc2cccc(n2)CSC[C@@H](C(=O)NC2CCN(CC(=O)N[C@H](CCC(=O)NC[C@H](O)[C@@H](O)[C@H](O)[C@H](O)CO)C(=O)N[C@@H](CCCCNC(=O)CN3CCN(CC(=O)O)CCN(CC(=O)O)CCN(CC(=O)O)CC3)C(N)=O)CC2)NC1=O [GIP-022, HO-Succinyl-Trp-5Clw-Tap-Glu-leu-[Cys(2Lut)-Apc-Leu-Ile-Cys]-APAc-glu(AGLU)-Lys(DOTA)-NH2] (Suc-W[Trp(5-Cl)][Pro(4R-NH2)]E[dL]C[Api]LIC[X1][dE](NH(1-deoxy-D-glucityl))K(DOTA)-NH2; linker 6-10 via Pyridine(2,6-diCH2)) | < 0.01 µM | A (t1/2 values>15 min) | < 0.001 µM
6 | CC[C@H](C)[C@@H]1NC(=O)[C@H](CC(C)C)NC(=O)C2(CCN(C(=O)CN3CCN(CC(=O)O)CCN(CC(=O)O)CCN(CC(=O)O)CC3)CC2)NC(=O)[C@@H](NC(=O)[C@@H](CC(C)C)NC(=O)[C@H](CCO)NC(=O)[C@@H]2C[C@@H](NC(=O)CCCC(=O)NC[C@H](O)[C@@H](O)[C@H](O)[C@H](O)CO)CN2C(=O)[C@H](Cc2c[nH]c3ccc(Cl)cc23)NC(=O)[C@H](Cc2c[nH]c3ccccc23)NC(=O)[C@H](CO)NC(=O)CN2CCC(NC(=O)CCCC(=O)NC[C@H](O)[C@@H](O)[C@H](O)[C@H](O)CO)CC2)CSCc2cccc(n2)CSC[C@@H](C(=O)NC2CCN(CC(=O)N[C@H](CCC(=O)NC[C@H](O)[C@@H](O)[C@H](O)[C@H](O)CO)C(N)=O)CC2)NC1=O [GIP-046, AGLU-Glutar-APAc-Ser-Trp-5Clw-Tap(AGLU-Glutar)-Hse-leu-[Cys(2Lut)-Apc(DOTA)-Leu-Ile-Cys]-APAc-glu(AGLU)-NH2] ({NH(1-deoxy-D-glucityl)-Glutaryl}-[X1]SW[Trp(5-Cl)][Pro(trans-4-NH2)]([Glutaryl-NH(1-deoxy-D-glucityl)])[hSer][dL]C[Api](DOTA)LIC[X1][dE](NH(1-deoxy-D-glucityl))-NH2; linker 8-12 via Pyridine(2,6-diCH2)) | 0.01 to 0.0794 µM | D (t1/2<2.0 min) | 0.001 to 0.00794 µM
